Measured values published in US12285012B2, “Compositions comprising pyridine carboxylate herbicides with acetolactate synthase (ALS) inhibitor herbicides” (Corteva Agriscience LLC, priority 2018, dated 2025).

Legend:
[1] = test system: spring barley (HORVS); format: in vivo, Hordeum vulgare; settings: Bispyrabac 20 g/ha
Procedure: (§1) The plants were grown for 7-36 days (d) in a greenhouse with an approximate 14-hour (h) photo-period which was maintained at about 23° C. during the day and 22° C. during the night. Nutrients and water were added on a regular basis and supplemental lighting was provided with overhead metal halide 1000-Watt lamps as necessary. The plants were employed for testing when they reached the second or third true leaf stage.
(§2) The emulsifiable concentrates also included a safener, cloquintocet-mexyl, at 120 grams active ingredient per liter (g ai/L), unless otherwise noted below.
(§3) Control plants were sprayed in the same manner with the solvent blank. All pyridine carboxylate herbicide (component a) application rates are given as “g ae/ha” and all ALS inhibitor (component b) application rates are given as “g ai/ha.”
(§4) The treated plants and control plants were placed in a greenhouse as described above and watered by sub-irrigation to prevent wash-off of the test compounds. After 20-22 d, the condition of the test plants as compared with that of the control plants was determined visually and scored on a scale of 0 to 100 percent where 0 corresponds to no injury and 100 corresponds to complete kill.

[2] = test system: common lambsquarters (CHEAL, Chenopodium album L.); assay: Greenhouse postemergence herbicidal effect; format: in vivo
Procedure: (§5) Seeds of the desired test plant species were planted in a 90:10% v/v (volume/volume) mixture of PRO-MIX® BX (Premier Tech Horticulture, Quakertown, PA, USA) and PROFILE® GREENS GRADE™ (Profile Products LLC, Buffalo Grove, IL, USA) planting mixture, which typically has a pH of 5.2 to 6.2 and an organic matter content of at least 50 percent, in plastic pots with a surface area of 103.2 square centimeters (cm^2). […] The plants were grown for 7-36 days (d) in a greenhouse with an approximate 14-hour (h) photo-period which was maintained at about 23° C. during the day and 22° C. during the night. Nutrients and water were added on a regular basis and supplemental lighting was provided with overhead metal halide 1000-Watt lamps as necessary. The plants were employed for testing when they reached the second or third true leaf stage.
(§6) Emulsifiable concentrates of each of each pyridine carboxylate herbicide (Compound A or Compound B) were prepared at 100 grams acid equivalent per liter (g ae/L). The emulsifiable concentrates also included a safener, cloquintocet-mexyl, at 120 grams active ingredient per liter (g ai/L), unless otherwise noted below. An aliquot of each emulsifiable concentrate was placed in a 25 mL glass vial and diluted with an aqueous mixture of 1.25% (v/v) ACTIROB® B esterified rapeseed oil (Bayer Crop Science, Research Triangle Park, NC, USA) or MSO® Concentrate with LECI-TECH® methylated soybean oil (Loveland Products, Loveland, CO, USA) to obtain concentrated stock solutions at the highest application rate for each herbicide, based upon a 12 milliliter (mL) application volume at a rate of 187 liters per hectare (L/ha). The concentrated stock solutions were further diluted with an aqueous mixture of 1.25% v/v ACTIROB® B or MSO® Concentrate with LECI-TECH® to obtain stock solutions at reduced application rates for each herbicide. Spray solutions of the herbicide combinations (Compound A or Compound B plus ALS herbicide) were prepared by adding weighed amounts or aliquots of the ALS herbicides to the stock solutions of Compound A or Compound B to form 12-mL spray solutions in two- or three-way combinations.
(§7) The spray solutions were applied to the plant material with an overhead Mandel track sprayer equipped with 8002E nozzles calibrated to deliver 187 L/ha over an application area of 0.503 square meters (m^2) at a spray height of 18 inches (43 centimeters (cm)) above the average plant canopy. Control plants were sprayed in the same manner with the solvent blank. All pyridine carboxylate herbicide (component a) application rates are given as “g ae/ha” and all ALS inhibitor (component b) application rates are given as “g ai/ha.”
as §4

[3] = test system: kochia (KCHSC, Kochia scoparia); assay: Greenhouse postemergence herbicidal effect; format: in vivo
Procedure: as §5, §6, §7, §4

[4] = test system: spring wheat (TRZAS); format: in vivo, Triticum aestivum; settings: Bispyrabac 20 g/ha
Procedure: as §1, §2, §3, §4

[5] = test system: Canadian thistle (CIRAR, Cirsium arvense); assay: Greenhouse postemergence herbicidal effect; format: in vivo
Procedure: as §1, §2, §3, §4

[6] = test system: winter rape (BRSNW, Brassica napus); assay: Greenhouse postemergence herbicidal effect; format: in vivo
Procedure: as §1, §2, §3, §4

[7] = test system: wild mustard (SINAR, Sinapis arvensis); assay: Greenhouse postemergence herbicidal effect; format: in vivo
Procedure: as §1, §2, §3, §4

[8] = test system: wild chamomile (MATCH, Matricaria chamomilla); assay: Greenhouse postemergence herbicidal effect; format: in vivo
Procedure: as §1, §2, §3, §4

[9] = test system: pigweed (AMARE, Amaranthus retroflexus); assay: Greenhouse postemergence herbicidal effect; format: in vivo
Procedure: as §1, §2, §3, §4

[10] = test system: wild buckwheat (POLCO, Polygonum convolvulus); assay: Greenhouse postemergence herbicidal effect; format: in vivo
Procedure: as §1, §2, §3, §4

[11] = test system: Russian thistle (SASKR, Salsola kali); assay: Greenhouse postemergence herbicidal effect; format: in vivo
Procedure: as §1, §2, §3, §4

Compound: COc1cc(OC)nc(Oc2cccc(Oc3nc(OC)cc(OC)n3)c2C(=O)O)n1 [Bispyrabac]
- % visual injury Obs [1]: 13%
- % visual injury Obs ([2]; Bispyrabac 20 g/ha): 0%
- % visual injury Obs ([3]; Bispyrabac 20 g/ha): 10%
- % visual injury Obs [4]: 0%
- % visual injury Obs ([5]; Bispyrabac 20 g/ha): 68%
- % visual injury Obs ([6]; Bispyrabac 20 g/ha): 100%
- % visual injury Obs ([7]; Bispyrabac 20 g/ha): 96%
- % visual injury Obs ([8]; Bispyrabac 20 g/ha): 23%
- % visual injury Obs ([9]; Bispyrabac 20 g/ha): 100%
- % visual injury Obs ([10]; Bispyrabac 20 g/ha): 96%

Compound: COc1nn(C(=O)NS(=O)(=O)c2ccccc2OC(F)(F)F)c(=O)n1C [Flucarbazone, flucarbazone]
- % visual injury, Obs ([2]; CHEAL, Flurcarbazone 30 g/ha): 10%
- pest or weed control at 30 g/ha ([3]; Bassia scoparia, post-emergence, KCHSC, Flurcarbazone 30 g/ha, read-out: % visual injury, Obs): 25%
- pest or weed control at 30 g/ha ([5]; Cirsium arvense, post-emergence, CIRAR, Flurcarbazone 30 g/ha, read-out: % visual injury, Obs): 28%
- % visual injury, Obs ([6]; BRSNW, Flurcarbazone 30 g/ha): 83%
- % visual injury, Obs ([7]; SINAR, Flurcarbazone 30 g/ha): 88%
- % visual injury, Obs ([8]; MATCH, Flurcarbazone 30 g/ha): 18%
- % visual injury, Obs ([9]; AMARE, Flurcarbazone 30 g/ha): 98%
- % visual injury, Obs ([10]; POLCO, Flurcarbazone 30 g/ha): 88%

Compound: Cc1ccn2nc(S(=O)(=O)Nc3c(F)cccc3F)nc2n1 [Flumetsulam, flumetsulam]
- % visual injury Obs ([2]; Flumetsulam 4.375 g/ha): 45%
- % visual injury Obs ([3]; Flumetsulam 4.375 g/ha): 5%
- % visual injury Obs ([5]; Flumetsulam 4.375 g/ha): 5%
- % visual injury Obs ([6]; Flumetsulam 4.375 g/ha): 40%
- % visual injury Obs ([7]; Flumetsulam 4.375 g/ha): 50%
- % visual injury Obs ([8]; Flumetsulam 4.375 g/ha): 83%
- % visual injury Obs ([9]; Flumetsulam 4.375 g/ha): 98%
- % visual injury Obs ([11]; Flumetsulam 4.375 g/ha): 0%
- % visual injury Obs ([10]; Flumetsulam 4.375 g/ha): 5%

Compound: Cc1cnc(C2=NC(C)(C(C)C)C(=O)N2)c(C(=O)O)c1 (stereo not drawn) [Imazapic, imazapic]
- Obs % visual injury ([2]; CHEAL, Imazapic 35 g/ha): 78%
- Obs % visual injury ([3]; KCHSC, Imazapic 35 g/ha): 80%
- Obs % visual injury ([5]; CIRAR, Imazapic 35 g/ha): 68%
- Obs % visual injury ([6]; BRSNW, Imazapic 35 g/ha): 98%
- Obs % visual injury ([7]; SINAR, Imazapic 35 g/ha): 91%
- Obs % visual injury ([8]; MATCH, Imazapic 35 g/ha): 68%
- Obs % visual injury ([9]; AMARE, Imazapic 35 g/ha): 100%
- Obs % visual injury ([11]; SASKR, Imazapic 35 g/ha): 35%
- Obs % visual injury ([10]; POLCO, Imazapic 35 g/ha): 63%
